Experiments:
[1] = tested on: PAE strains (CRE strains, colistin sensitive); assay: MIC of polymyxin B or colistin alone (Table 4); type: cell-based, P. aeruginosa; set-up: unit: μg/mL
Procedure: (§1) MIC experiments of the antimicrobial agents were determined by a modified broth microdilution method in accordance with the Clinical and Laboratory Standards Institute (CLSI) guidelines using 96 well culture plates. In brief, serial dilutions of all plates were prepared at different concentrations (μg). The inoculum suspension was prepared by adding isolated colonies from a 18-20 hours on TSA plate into phosphate buffer (0.31 mM, pH 7.2) or in water for injection (BBraun) and adjusting the suspension to a turbidity equivalent to 0.5 McFarland Standard. Each well contained a final bacterial concentration of approximately 5×10^5 colony forming units (CFU)/mL. The plate was covered and incubated at 35° C. for 24 hours. […] For the microdilution plates, turbidity in wells can be measured at OD600 using TECAN infinite M200Pro. MIC was determined as […] concentration that gives a 99 percent inhibition.

[2] = tested on: EC strains (CRE strains, colistin sensitive); assay: MIC of polymyxin B or colistin alone (Table 4); type: cell-based, E. coli; set-up: unit: μg/mL
Procedure: as §1

[3] = tested on: ENT CLOACAE multi-drug resistant strains; assay: MIC against multi-drug resistant strains (Table 5); type: cell-based, E. cloacae; conditions: alone
Procedure: as §1

[4] = tested on: various pathogens; assay: organism not typed; type: cell-based
Method in brief: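 Broth microdilution MIC per CLSI: each agent alone and LC compound plus antibiotic (e.g. colistin) combined in equal amounts, serially diluted 2-fold at fixed synergy concentration.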

[5] = 6093560257 [MCR 1+, E. Coli, NDM-1]
[6] = 7103531927 [MCR 1+, E. Coli, KPC+]
[7] = 7113636863 [MCR 1+, E. Coli, NDM-1]

## Colistin
[1]; strain PAE 4877
  MIC (antibiotic alone): 1.56
[1]; strain PAE 5790
  MIC (antibiotic alone): 1.56
[1]; strain PAE 14476
  MIC (antibiotic alone): 1.56
[2]; strain EC 17232
  MIC (antibiotic alone): 0.195
[2]; strain EC 17528
  MIC (antibiotic alone): 0.78
[2]; strain EC 19963
  MIC (antibiotic alone): 1.56
[3]; strain ENT CLOACAE 6780
  MIC: 1.56 µg/mL
[3]; strain ENT CLOACAE 21489
  MIC: 0.78 µg/mL
[3]; strain ENT CLOACAE 30063
  MIC: >50 µg/mL
[3]; strain ENT CLOACAE 44095
  MIC: >50 µg/mL
[4]; 6083655967 [MCR 1+, E. Coli]
  FOLD CHANGES [Absorbance (abs; OD 600 nm)] No Treatment [Bacteria alone]: Colistin 0.5 μg: 1.10
  FOLD CHANGES [Absorbance (abs; OD 600 nm)] No Treatment [Bacteria alone]: MIC Colistin: 19.59
  MIC: 6.25 µg/mL
[4]; [5]
  FOLD CHANGES [Absorbance (abs; OD 600 nm)] No Treatment [Bacteria alone]: Colistin 0.5 μg: 1.14
  FOLD CHANGES [Absorbance (abs; OD 600 nm)] No Treatment [Bacteria alone]: MIC Colistin: 21.59
  MIC: 6.25 µg/mL
[4]; 6123520276 [MCR 1+, E. Coli]
  FOLD CHANGES [Absorbance (abs; OD 600 nm)] No Treatment [Bacteria alone]: Colistin 0.5 μg: 1.04
  FOLD CHANGES [Absorbance (abs; OD 600 nm)] No Treatment [Bacteria alone]: MIC Colistin: 20.10
  MIC: 6.25 µg/mL
[4]; 7023436560 [MCR 1+, E. Coli]
  FOLD CHANGES [Absorbance (abs; OD 600 nm)] No Treatment [Bacteria alone]: Colistin 0.5 μg: 1.14
  FOLD CHANGES [Absorbance (abs; OD 600 nm)] No Treatment [Bacteria alone]: MIC Colistin: 18.70
  MIC: 6.25 µg/mL
[4]; 7023444207 [MCR 1+, E. Coli]
  FOLD CHANGES [Absorbance (abs; OD 600 nm)] No Treatment [Bacteria alone]: Colistin 0.5 μg: 1.10
  FOLD CHANGES [Absorbance (abs; OD 600 nm)] No Treatment [Bacteria alone]: MIC Colistin: 17.44
  MIC: 6.25 µg/mL
[4]; 7023446108 [MCR 1−, E. Coli]
  FOLD CHANGES [Absorbance (abs; OD 600 nm)] No Treatment [Bacteria alone]: Colistin 0.5 μg: 1.15
  FOLD CHANGES [Absorbance (abs; OD 600 nm)] No Treatment [Bacteria alone]: MIC Colistin: 18.04
  MIC: 6.25 µg/mL
[4]; 7033607097 [MCR 1−, E. Coli]
  FOLD CHANGES [Absorbance (abs; OD 600 nm)] No Treatment [Bacteria alone]: Colistin 0.5 μg: 1.35
  FOLD CHANGES [Absorbance (abs; OD 600 nm)] No Treatment [Bacteria alone]: MIC Colistin: 15.21
  MIC: 6.25 µg/mL
[4]; [6]
  FOLD CHANGES [Absorbance (abs; OD 600 nm)] No Treatment [Bacteria alone]: Colistin 0.5 μg: 1.06
  FOLD CHANGES [Absorbance (abs; OD 600 nm)] No Treatment [Bacteria alone]: MIC Colistin: 17.67
  MIC: 6.25 µg/mL
[4]; [7]
  FOLD CHANGES [Absorbance (abs; OD 600 nm)] No Treatment [Bacteria alone]: Colistin 0.5 μg: 1.06
  FOLD CHANGES [Absorbance (abs; OD 600 nm)] No Treatment [Bacteria alone]: MIC Colistin: 16.97
  MIC: 6.25 µg/mL
[4]; ACBA 1003 (CI)
  FOLD CHANGES [Absorbance (abs; OD 600 nm)] No Treatment [Bacteria alone]: Colistin 0.5 μg: 1.26
  FOLD CHANGES [Absorbance (abs; OD 600 nm)] No Treatment [Bacteria alone]: MIC Colistin: 12.60
  MIC: 1.56 µg/mL
[4]; ACBA 1004 (CI)
  FOLD CHANGES [Absorbance (abs; OD 600 nm)] No Treatment [Bacteria alone]: Colistin 0.5 μg: 1.09
  FOLD CHANGES [Absorbance (abs; OD 600 nm)] No Treatment [Bacteria alone]: MIC Colistin: 23.71
  MIC: 1.56 µg/mL
[4]; ACBA 1005 (CI)
  FOLD CHANGES [Absorbance (abs; OD 600 nm)] No Treatment [Bacteria alone]: Colistin 0.5 μg: 1.02
  FOLD CHANGES [Absorbance (abs; OD 600 nm)] No Treatment [Bacteria alone]: MIC Colistin: 22.34
  MIC: 1.56 µg/mL
[4]; ACBA 1006 (CI)
  FOLD CHANGES [Absorbance (abs; OD 600 nm)] No Treatment [Bacteria alone]: Colistin 0.5 μg: 1.12
  FOLD CHANGES [Absorbance (abs; OD 600 nm)] No Treatment [Bacteria alone]: MIC Colistin: 23.81
  MIC: 1.56 µg/mL
[4]; ACBA 1010 (CI)
  FOLD CHANGES [Absorbance (abs; OD 600 nm)] No Treatment [Bacteria alone]: Colistin 0.5 μg: 1.13
  FOLD CHANGES [Absorbance (abs; OD 600 nm)] No Treatment [Bacteria alone]: MIC Colistin: 21.43
  MIC: 0.39 µg/mL
[4]; ACBA ATCC 19606
  FOLD CHANGES [Absorbance (abs; OD 600 nm)] No Treatment [Bacteria alone]: Colistin 0.5 μg: 2.04
  FOLD CHANGES [Absorbance (abs; OD 600 nm)] No Treatment [Bacteria alone]: MIC Colistin: 16.14
  MIC: 0.78 µg/mL
[4]; ACBA DR 43357
  FOLD CHANGES [Absorbance (abs; OD 600 nm)] No Treatment [Bacteria alone]: Colistin 0.5 μg: 1.06
  FOLD CHANGES [Absorbance (abs; OD 600 nm)] No Treatment [Bacteria alone]: MIC Colistin: 25.47
  MIC: 1.56 µg/mL
[4]; E. Coli ATCC 8739
  FOLD CHANGES [Absorbance (abs; OD 600 nm)] No Treatment [Bacteria alone]: Colistin 0.5 μg: 1.85
  FOLD CHANGES [Absorbance (abs; OD 600 nm)] No Treatment [Bacteria alone]: MIC Colistin: 20.68
  MIC: 0.78 µg/mL
[4]; E. Coli ATCC 10536
  FOLD CHANGES [Absorbance (abs; OD 600 nm)] No Treatment [Bacteria alone]: Colistin 0.5 μg: 1.11
  FOLD CHANGES [Absorbance (abs; OD 600 nm)] No Treatment [Bacteria alone]: MIC Colistin: 18.42
  MIC: 0.78 µg/mL
[4]; E. Coli ATCC 25922
  FOLD CHANGES [Absorbance (abs; OD 600 nm)] No Treatment [Bacteria alone]: Colistin 0.5 μg: 1.23
  FOLD CHANGES [Absorbance (abs; OD 600 nm)] No Treatment [Bacteria alone]: MIC Colistin: 18.24
  MIC: 0.78 µg/mL
[4]; E. Coli ATCC 35218
  FOLD CHANGES [Absorbance (abs; OD 600 nm)] No Treatment [Bacteria alone]: Colistin 0.5 μg: 1.31
  FOLD CHANGES [Absorbance (abs; OD 600 nm)] No Treatment [Bacteria alone]: MIC Colistin: 24.46
  MIC: 0.78 µg/mL
[4]; E. Coli CRE 11804
  FOLD CHANGES [Absorbance (abs; OD 600 nm)] No Treatment [Bacteria alone]: Colistin 0.5 μg: 1.19
  FOLD CHANGES [Absorbance (abs; OD 600 nm)] No Treatment [Bacteria alone]: MIC Colistin: 17.29
  MIC: 0.78 µg/mL
[4]; E. Coli CRE 17232
  FOLD CHANGES [Absorbance (abs; OD 600 nm)] No Treatment [Bacteria alone]: Colistin 0.5 μg: 1.31
  FOLD CHANGES [Absorbance (abs; OD 600 nm)] No Treatment [Bacteria alone]: MIC Colistin: 16.09
  MIC: 0.78 µg/mL
[4]; E. Coli CRE 17528
  FOLD CHANGES [Absorbance (abs; OD 600 nm)] No Treatment [Bacteria alone]: Colistin 0.5 μg: 1.45
